Assay results taken from paper PMC4460250, “Systems Pharmacology Dissecting Holistic Medicine for Treatment of Complex Diseases: An Example Using Cardiocerebrovascular Diseases Treated by TCM” (Evidence-based Complementary and Alternative Medicine : eCAM, 2015).

Legend:
[1] = in vivo
[2] = in vivo; cited from earlier work

COc1ccc2c3c1O[C@H]1[C@@H](O)CC[C@H]4[C@@H](C2)N(C)CC[C@@]341 [Dihydrocodeine]
Class(High: HIA value ≥0.7; Low: HIA value < 0.7) [1]: High (key: High: HIA value ≥0.7; Low: HIA value < 0.7)
HIA(Human Intestinal Absorption) [2]: 0.88

O=C(O)CCCc1ccc(N(CCCl)CCCl)cc1 [Chlorambucil]
Class(High: HIA value ≥0.7; Low: HIA value < 0.7) [1]: High (key: High: HIA value ≥0.7; Low: HIA value < 0.7)
HIA(Human Intestinal Absorption) [2]: 1

Cc1cccc(C)c1NC(=O)[C@@H](C)N [Tocainide(R)]
Class(High: HIA value ≥0.7; Low: HIA value < 0.7) [1]: High (key: High: HIA value ≥0.7; Low: HIA value < 0.7)
HIA(Human Intestinal Absorption) [2]: 1

CCOC(=O)C1(c2ccccc2)CCC=CC1N(C)C (stereo not drawn) [Tilidine]
Class(High: HIA value ≥0.7; Low: HIA value < 0.7) [1]: High (key: High: HIA value ≥0.7; Low: HIA value < 0.7)
HIA(Human Intestinal Absorption) [2]: 1

CCC(C(N)=O)N1CCCC1=O (stereo in doubt) [Levetiracetam(R)]
Class(High: HIA value ≥0.7; Low: HIA value < 0.7) [1]: High (key: High: HIA value ≥0.7; Low: HIA value < 0.7)
HIA(Human Intestinal Absorption) [2]: 1

Cc1cc(C)nc(NS(=O)(=O)c2ccc(N)cc2)n1 [Sulfamethazine]
Class(High: HIA value ≥0.7; Low: HIA value < 0.7) [1]: High (key: High: HIA value ≥0.7; Low: HIA value < 0.7)
HIA(Human Intestinal Absorption) [2]: 0.95

C[C@H](CN(C)C)CN1c2ccccc2Sc2ccccc21 [Trimeprazine(R)]
Class(High: HIA value ≥0.7; Low: HIA value < 0.7) [1]: High (key: High: HIA value ≥0.7; Low: HIA value < 0.7)
HIA(Human Intestinal Absorption) [2]: 0.8

CCCC(=O)Nc1ccc(OC[C@H](O)CNC(C)C)c(C(C)=O)c1 [Acebutolol(R)]
Class(High: HIA value ≥0.7; Low: HIA value < 0.7) [1]: High (key: High: HIA value ≥0.7; Low: HIA value < 0.7)
HIA(Human Intestinal Absorption) [2]: 0.85

CN(C)C(=O)Oc1cccc([N+](C)(C)C)c1 [Neostigmine]
Class(High: HIA value ≥0.7; Low: HIA value < 0.7) [1]: Low (key: High: HIA value ≥0.7; Low: HIA value < 0.7)
HIA(Human Intestinal Absorption) [2]: 0.02

COc1cc2nc(N3CCN(C(=O)[C@@H]4COc5ccccc5O4)CC3)nc(N)c2cc1OC [Doxazosin(S)]
Class(High: HIA value ≥0.7; Low: HIA value < 0.7) [1]: High (key: High: HIA value ≥0.7; Low: HIA value < 0.7)
HIA(Human Intestinal Absorption) [2]: 1

O=C(c1ccccc1)c1ccc2n1CC[C@@H]2C(=O)O [Ketorolac(S)]
Class(High: HIA value ≥0.7; Low: HIA value < 0.7) [1]: High (key: High: HIA value ≥0.7; Low: HIA value < 0.7)
HIA(Human Intestinal Absorption) [2]: 0.95

COC(=O)C1=C(C)NC(C)=C(C(=O)OC(C)C)[C@@H]1c1cccc2nonc12 [Isradipine(R)]
Class(High: HIA value ≥0.7; Low: HIA value < 0.7) [1]: High (key: High: HIA value ≥0.7; Low: HIA value < 0.7)
HIA(Human Intestinal Absorption) [2]: 0.92

CCCCC1C(=O)N(c2ccccc2)N(c2ccccc2)C1=O [Phenylbutazone]
Class(High: HIA value ≥0.7; Low: HIA value < 0.7) [1]: High (key: High: HIA value ≥0.7; Low: HIA value < 0.7)
HIA(Human Intestinal Absorption) [2]: 0.98

CN(Cc1cnc2nc(N)nc(N)c2n1)c1ccc(C(=O)N[C@@H](CCC(=O)O)C(=O)O)cc1 [Methotrexate(S)]
Class(High: HIA value ≥0.7; Low: HIA value < 0.7) [1]: High (key: High: HIA value ≥0.7; Low: HIA value < 0.7)
HIA(Human Intestinal Absorption) [2]: 1

CC(C)(C)NC[C@H](O)COc1cccc2c1CCC(=O)N2 [Carteolol(S)]
Class(High: HIA value ≥0.7; Low: HIA value < 0.7) [1]: High (key: High: HIA value ≥0.7; Low: HIA value < 0.7)
HIA(Human Intestinal Absorption) [2]: 0.95

CN1[C@H](CSCC(F)(F)F)Nc2cc(Cl)c(S(N)(=O)=O)cc2S1(=O)=O [Polythiazide(R)]
Class(High: HIA value ≥0.7; Low: HIA value < 0.7) [1]: High (key: High: HIA value ≥0.7; Low: HIA value < 0.7)
HIA(Human Intestinal Absorption) [2]: 1

N=C(N)NC(=O)c1nc(Cl)c(N)nc1N [Amiloride]
Class(High: HIA value ≥0.7; Low: HIA value < 0.7) [1]: Low (key: High: HIA value ≥0.7; Low: HIA value < 0.7)
HIA(Human Intestinal Absorption) [2]: 0.5

CC(C)(C)NCC(O)COc1ccccc1C1CCCC1 (stereo in doubt) [Penbutolol(R)]
Class(High: HIA value ≥0.7; Low: HIA value < 0.7) [1]: High (key: High: HIA value ≥0.7; Low: HIA value < 0.7)
HIA(Human Intestinal Absorption) [2]: 1

CCN(CC)CCCOC(=O)C1(c2ccccc2)CC2CCC1C2 (stereo not drawn) [Bornaprine]
Class(High: HIA value ≥0.7; Low: HIA value < 0.7) [1]: High (key: High: HIA value ≥0.7; Low: HIA value < 0.7)
HIA(Human Intestinal Absorption) [2]: 1

NCC1(CC(=O)O)CCCCC1 [Gabapentin]
Class(High: HIA value ≥0.7; Low: HIA value < 0.7) [1]: Low (key: High: HIA value ≥0.7; Low: HIA value < 0.7)
HIA(Human Intestinal Absorption) [2]: 0.59

C=CCOc1ccccc1OC[C@@H](O)CNC(C)C [Oxprenolol(S)]
Class(High: HIA value ≥0.7; Low: HIA value < 0.7) [1]: High (key: High: HIA value ≥0.7; Low: HIA value < 0.7)
HIA(Human Intestinal Absorption) [2]: 0.95

OC(O)C(Cl)(Cl)Cl [Chloral_hydrate]
Class(High: HIA value ≥0.7; Low: HIA value < 0.7) [1]: High (key: High: HIA value ≥0.7; Low: HIA value < 0.7)
HIA(Human Intestinal Absorption) [2]: 1

C[C@H](CN1CCOCC1)C(C(=O)N1CCCC1)(c1ccccc1)c1ccccc1 [Dextromoramide]
Class(High: HIA value ≥0.7; Low: HIA value < 0.7) [1]: High (key: High: HIA value ≥0.7; Low: HIA value < 0.7)
HIA(Human Intestinal Absorption) [2]: 1

O=C(O)c1ccccc1O [Salicylic acid]
Class(High: HIA value ≥0.7; Low: HIA value < 0.7) [1]: High (key: High: HIA value ≥0.7; Low: HIA value < 0.7)

O[C@@](CCN1CCCCC1)(c1ccccc1)C1CCCCC1 [Trihexyphenidyl(R)]
Class(High: HIA value ≥0.7; Low: HIA value < 0.7) [1]: High (key: High: HIA value ≥0.7; Low: HIA value < 0.7)
HIA(Human Intestinal Absorption) [2]: 1

OC[C@@H](O)COc1ccc(Cl)cc1 [Chlorphenesin(R)]
Class(High: HIA value ≥0.7; Low: HIA value < 0.7) [1]: High (key: High: HIA value ≥0.7; Low: HIA value < 0.7)
HIA(Human Intestinal Absorption) [2]: 1

CN1C(=O)C[C@@](C)(c2ccccc2)C1=O [Methsuximide(S)]
Class(High: HIA value ≥0.7; Low: HIA value < 0.7) [1]: High (key: High: HIA value ≥0.7; Low: HIA value < 0.7)
HIA(Human Intestinal Absorption) [2]: 1

C#C[C@]1(O)CC[C@H]2[C@@H]3CCC4=CC(=O)CC[C@@H]4[C@H]3CC[C@@]21CC [Levonorgestrel]
Class(High: HIA value ≥0.7; Low: HIA value < 0.7) [1]: High (key: High: HIA value ≥0.7; Low: HIA value < 0.7)

N=C(N)NC[C@H]1COC2(CCCCC2)O1 [Guanadrel(S)]
Class(High: HIA value ≥0.7; Low: HIA value < 0.7) [1]: High (key: High: HIA value ≥0.7; Low: HIA value < 0.7)
HIA(Human Intestinal Absorption) [2]: 0.8

C[C@H](C(=O)O)c1cccc(Oc2ccccc2)c1 [Fenoprofen(S)]
Class(High: HIA value ≥0.7; Low: HIA value < 0.7) [1]: High (key: High: HIA value ≥0.7; Low: HIA value < 0.7)
HIA(Human Intestinal Absorption) [2]: 0.85

COCCc1ccc(OC[C@@H](O)CNC(C)C)cc1 [Metoprolol(S)]
Class(High: HIA value ≥0.7; Low: HIA value < 0.7) [1]: High (key: High: HIA value ≥0.7; Low: HIA value < 0.7)
HIA(Human Intestinal Absorption) [2]: 0.96

CC(C)[C@H]1CC[C@H](C(=O)N[C@H](Cc2ccccc2)C(=O)O)CC1 [Nateglinide(R)]
Class(High: HIA value ≥0.7; Low: HIA value < 0.7) [1]: High (key: High: HIA value ≥0.7; Low: HIA value < 0.7)
HIA(Human Intestinal Absorption) [2]: 0.83

O=C1Nc2ccc(Cl)cc2C(c2ccccc2)=N[C@H]1O [Oxazepam(S)]
Class(High: HIA value ≥0.7; Low: HIA value < 0.7) [1]: High (key: High: HIA value ≥0.7; Low: HIA value < 0.7)

CCn1cc(C(=O)O)c(=O)c2cc(F)c(N3CCN[C@@H](C)C3)c(F)c21 [Lomefloxacin(S)]
Class(High: HIA value ≥0.7; Low: HIA value < 0.7) [1]: High (key: High: HIA value ≥0.7; Low: HIA value < 0.7)
HIA(Human Intestinal Absorption) [2]: 0.99

C[C@]12C=CC(=O)C=C1CC[C@@H]1[C@@H]2[C@@H](O)C[C@@]2(C)[C@H]1CC[C@]2(O)C(=O)CO [Prednisolone]
Class(High: HIA value ≥0.7; Low: HIA value < 0.7) [1]: High (key: High: HIA value ≥0.7; Low: HIA value < 0.7)

Cc1nnc2n1-c1ccc(Cl)cc1C(c1ccccc1Cl)=NC2 [Triazolam]
Class(High: HIA value ≥0.7; Low: HIA value < 0.7) [1]: High (key: High: HIA value ≥0.7; Low: HIA value < 0.7)

CCCc1cc(=O)[nH]c(=S)[nH]1 [Propylthiouracil]
Class(High: HIA value ≥0.7; Low: HIA value < 0.7) [1]: High (key: High: HIA value ≥0.7; Low: HIA value < 0.7)

CCN(CC)CCOC(=O)C(Cc1cccc2ccccc12)CC1CCCO1 (stereo not drawn) [Nafronyl]
Class(High: HIA value ≥0.7; Low: HIA value < 0.7) [1]: High (key: High: HIA value ≥0.7; Low: HIA value < 0.7)

NS(=O)(=O)c1cc2c(cc1Cl)NCNS2(=O)=O [Hydrochlorothiazide]
Class(High: HIA value ≥0.7; Low: HIA value < 0.7) [1]: Low (key: High: HIA value ≥0.7; Low: HIA value < 0.7)

CN1C(=O)[C@H](O)N=C(c2ccccc2)c2cc(Cl)ccc21 [Temazepam(S)]
Class(High: HIA value ≥0.7; Low: HIA value < 0.7) [1]: High (key: High: HIA value ≥0.7; Low: HIA value < 0.7)

Cc1cc(NS(=O)(=O)c2ccc(N)cc2)no1 [Sulfamethoxazole]
Class(High: HIA value ≥0.7; Low: HIA value < 0.7) [1]: High (key: High: HIA value ≥0.7; Low: HIA value < 0.7)

CN1C(=O)[C@@H](O)N=C(c2ccccc2)c2cc(Cl)ccc21 [Temazepam(R)]
Class(High: HIA value ≥0.7; Low: HIA value < 0.7) [1]: High (key: High: HIA value ≥0.7; Low: HIA value < 0.7)

CN1CC[C@]23c4c5ccc(O)c4O[C@H]2[C@@H](O)C=C[C@H]3[C@H]1C5 [Morphine]
Class(High: HIA value ≥0.7; Low: HIA value < 0.7) [1]: High (key: High: HIA value ≥0.7; Low: HIA value < 0.7)

Nc1cc(N2CCCCC2)nc(N)[n+]1[O-] [Minoxidil]
Class(High: HIA value ≥0.7; Low: HIA value < 0.7) [1]: High (key: High: HIA value ≥0.7; Low: HIA value < 0.7)

ClC(Cl)Cl [Chloroform]
Class(High: HIA value ≥0.7; Low: HIA value < 0.7) [1]: High (key: High: HIA value ≥0.7; Low: HIA value < 0.7)

Cc1cnc(C(=O)NCCc2ccc(S(=O)(=O)NC(=O)NC3CCCCC3)cc2)cn1 [Glipizide]
Class(High: HIA value ≥0.7; Low: HIA value < 0.7) [1]: High (key: High: HIA value ≥0.7; Low: HIA value < 0.7)

CCN(CC)CCNC(=O)c1cc(Cl)c(N)cc1OC [Metoclopramide]
Class(High: HIA value ≥0.7; Low: HIA value < 0.7) [1]: High (key: High: HIA value ≥0.7; Low: HIA value < 0.7)

CC(C)NC[C@H](O)COc1ccc(COCCOC(C)C)cc1 [Bisoprolol(S)]
Class(High: HIA value ≥0.7; Low: HIA value < 0.7) [1]: High (key: High: HIA value ≥0.7; Low: HIA value < 0.7)

CC(C)NC[C@@H](O)COc1ccc(COCCOC(C)C)cc1 [Bisoprolol(R)]
Class(High: HIA value ≥0.7; Low: HIA value < 0.7) [1]: High (key: High: HIA value ≥0.7; Low: HIA value < 0.7)

C#CC1(O)CC[C@H]2[C@@H]3CCC4=CC(=O)CC[C@@H]4[C@H]3CC[C@@]21CC (stereo partly drawn) [Norgestrel]
Class(High: HIA value ≥0.7; Low: HIA value < 0.7) [1]: High (key: High: HIA value ≥0.7; Low: HIA value < 0.7)

O=C(O)Cc1ccccc1Nc1c(Cl)cccc1Cl [Diclofenac]
Class(High: HIA value ≥0.7; Low: HIA value < 0.7) [1]: High (key: High: HIA value ≥0.7; Low: HIA value < 0.7)

O=C1Nc2ccc(Cl)cc2C(c2ccccc2)=N[C@@H]1O [Oxazepam(R)]
Class(High: HIA value ≥0.7; Low: HIA value < 0.7) [1]: High (key: High: HIA value ≥0.7; Low: HIA value < 0.7)

CCOc1ccc2c3c1O[C@H]1[C@@H](O)C=C[C@H]4[C@@H](C2)N(C)CC[C@@]341 [Ethylmorphine]
Class(High: HIA value ≥0.7; Low: HIA value < 0.7) [1]: High (key: High: HIA value ≥0.7; Low: HIA value < 0.7)
